In patent US5719278A, “Tricyclic benzazepine vasopressin antagonists” (American Cyanamid Company, priority 1996, dated 1998):

Experiments:
Rat Hepatic V1 Receptors = target: T1, Rat Hepatic V1 Receptors (Rattus norvegicus, UniProt P30560); test: Binding Assay to Rat Hepatic V1 Receptors; conditions: Rat Hepatic V1 Receptors (no asterisk)
T1 construct: Rat liver plasma membranes expressing the vasopressin V1 receptor subtypes; from tissue; host or cells: rat liver plasma membranes
Description: Binding Assay to Rat Hepatic V1 Receptors
Rat liver plasma membranes expressing the vasopressin V1 receptor subtypes are isolated by sucrose density gradient according to the method described by Lesko et al., (1973). These membranes are quickly suspended in 50.0 mM Tris.HCl buffer, pH 7.4, containing 0.2% bovine serum albumin (BSA) and 0.1 mM phenylmethylsulfonylfluoride (PMSF) and kept frozen at -70° C. until used in subsequent binding experiments. For binding experiments, the following is added to the wells of a ninety-six well format microtiter plate: 100 μl of 100.0 mM Tris.HCl buffer containing 10.0 mM MgCl2, 0.2% heat inactivated BSA and a mixture of protease inhibitors: leupeptin, 1.0 mg %; aprotinin, 1.0 mg %, 1,10-phenanthroline,2.0 mg %; trypsin inhibitor, 10.0 mg % and 0.1 mM PMSF, 20.0 μl of [phenylalanyl-3,4,5-^3 H] vasopressin (S.A. 45.1 Ci/mmole) at 0.8 nM, and the reaction initiated by the addition of 80 μl of tissue membranes containing 20 μg of tissue protein. The plates are kept undisturbed on the bench top at room temperature for 120 min. to reach equilibrium. Non-specific samples are assayed in the presence of 0.1 μM of the unlabeled antagonist phenylalanylvasopressin, added in 20.0 μl volume to a final incubation volume of 200 μl. Upon completion of binding, the content of each well is filtered off, using a Brandel® cell Harvester (Gaithersburg, Md.). The radioactivity trapped on the filter disk by the ligand-receptor complex is assessed by liquid scintillation counting in a Packard LS Counter, with an efficiency of 65% for tritium. The data are analyzed for IC50 values by the LUNDON-2 program for competition (LUNDON SOFTWARE, Ohio).

Vasopressin V2 = Vasopressin V2 Antagonist Activity in Conscious Hydrated Rats; type: in vivo, rat; conditions: 10 mg/kg orally, N = 2, AVP 0.4 μg/kg intraperitoneally
Description: Vasopressin V2 Antagonist Activity in Conscious Hyrdated Rats
Conscious hydrated rats are treated with compounds under study from 0.1 to 100 mg/kg orally or vehicle. Two to four rats are used for each compound. One hour later, arginine vasopressin (AVP, antidiuretic hormone, ADH) dissolved in peanut oil is administered at 0.4 μg/kg intraperitoneally. Two rats in each test would not receive arginine vasopressin but only the vehicle (peanut oil) to serve as water-loading control. Twenty minutes later each rat is given 30 mL/kg of deionized water orally by gavage and is placed individually in a metabolic cage equipped with a funnel and a graduated glass cylinder to collect urine for four hours. Urine volume is measured and osmolality analyzed by use of a Fiske One-Ten osmometer (Fiske Assoc., Norwood, Mass. U.S.A.). Urinary sodium, potassium, and chloride are analyzed by use of ion-specific electrodes in a Beckman E3(Electrolyte 3) Analyzer.
In the following results, […] and decreased osmolality relative to AVP-control indicates activity.

oxytocin receptors = target: T2, oxytocin receptors (Rattus norvegicus, UniProt P70536); test: Oxytocin Receptor Binding; design: species or system Sprague-Dawley rat; conditions: for IC50: 1.0 nM [^3 H]OT, 60 min., 22° C.
T2 construct: The uteri are dissected out, cleaned of fat and connective tissues; from tissue; host or cells: uterus of DES-treated female Sprague-Dawley rats
T2 sequence (P70536 1-388): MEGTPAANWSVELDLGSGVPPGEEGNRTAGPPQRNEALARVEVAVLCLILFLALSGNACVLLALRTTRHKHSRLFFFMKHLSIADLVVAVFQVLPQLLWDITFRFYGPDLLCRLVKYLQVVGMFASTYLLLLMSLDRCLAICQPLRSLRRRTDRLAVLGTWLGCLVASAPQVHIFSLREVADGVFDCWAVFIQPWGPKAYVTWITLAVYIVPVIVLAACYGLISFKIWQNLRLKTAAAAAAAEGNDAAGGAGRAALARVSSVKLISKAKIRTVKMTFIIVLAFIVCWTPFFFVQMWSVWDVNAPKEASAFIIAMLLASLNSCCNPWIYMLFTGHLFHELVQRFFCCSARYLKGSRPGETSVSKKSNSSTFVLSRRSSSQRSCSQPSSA
Description: Oxytocin Receptor Binding
Female Sprague-Dawley rats weighing approximately 200-250 g are injected intramuscularly (i.m.) with 0.3 mg/kg of body weight of diethylstilbestrol (DES). The rats are sacrificed 18 hours later under pentobarbital anesthesia. The uteri are dissected out, cleaned of fat and connective tissues and rinsed in 50 ml of normal saline. The tissue pooled from six rats is homogenized in 50 ml of […] TriS.HCl, containing 0.5 mM dithiothreitol and 1.0 mM EDTA, adjusted to pH 7.4, using a polytron at setting 6 with three passes of 10 sec each. The homogenate is passed through two (2) layers of cheesecloth and the filtrate contrifuged at 1000×g for 10 min. The clear supernatant is removed and recentrifuged at 165,000×g for 30 min. The resulting pellet containing the oxytocin receptors is resuspended in 50.0 mM Tris.HCl containing 5.0 mM MgCl2 at pH 7.4, to give a protein concentration of 2.5 mg/ml of tissue suspension. This preparation is used in subsequent binding assays with [^3 H]Oxytocin.
Binding of 3,5-[^3 H]Oxytocin ([^3 H]OT) to its receptors is done in microtiter plates using [^3 H]OT, at various concentrations, in an assay buffer of 50.0 mM Tris.HCl, pH 7.4 and containing 5.0 mM MgCl2, and a mixture of protease inhibitors: BSA, 0.1 mg; aprotinin, 1.0 mg; 1,10-phenanthroline, 2.0 mg; […], 10.0 mg; and PMSF, 0.3 mg per 100 ml of buffer solution. Non-specific binding is determined in the presence of 1.0 uM unlabeled OT. The binding reaction is terminated after 60 min., at 22° C., by rapid filtration through glass fiber filters using a Brandel® cell harvester (Biomedical Research and Development Laboratories, Inc., Gaithersburg, Md.). Competition experiments are conducted at equilibrium using 1.0 nM [^3 H]OT and varying the concentration of the displacing agents. The concentrations of agent displacing 50% of [^3 H]OT at its sites (IC50) are calculated by a computer assisted LUNDON-2 program (LUNDON SOFTWARE INC., Ohio, U.S.A.).

[1] = target: T3, Rat Kidney Medullary V2 Receptors (Rattus norvegicus, UniProt Q00788); test: Binding Assay to Rat Kidney Medullary V2 Receptors; conditions: Rat Kidney Medullary V2 Receptors (no asterisk)
T3 construct: Medullary tissues from rat kidneys are dissected out; from tissue; host or cells: rat kidney medulla membranes
T3 sequence (Q00788 whole entry): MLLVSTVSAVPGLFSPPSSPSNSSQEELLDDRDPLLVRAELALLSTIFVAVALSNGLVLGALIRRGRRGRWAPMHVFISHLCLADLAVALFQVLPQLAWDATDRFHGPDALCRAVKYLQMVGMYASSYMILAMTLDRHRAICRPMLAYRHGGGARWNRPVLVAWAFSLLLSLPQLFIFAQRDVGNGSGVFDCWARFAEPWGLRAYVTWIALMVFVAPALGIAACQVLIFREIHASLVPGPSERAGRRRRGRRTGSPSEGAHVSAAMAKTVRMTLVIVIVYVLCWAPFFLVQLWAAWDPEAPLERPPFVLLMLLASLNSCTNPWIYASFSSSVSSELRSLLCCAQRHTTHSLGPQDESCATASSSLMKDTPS
Description: Binding Assay to Rat Kidney Medullary V2 Receptors
Medullary tissues from rat kidneys are dissected out, cut into small pieces and let soak in a […] sodium chloride solution containing 1.0 mM EDTA with many changes of the liquid phase, until the solution is clear of blood. The tissue is homogenized in a 0.25M sucrose solution containing 1.0 mM EDTA and 0.1 mM PMSF using a Potter-Elvehjem homogenizer with a teflon pestle. The homogenate is filtered through several layers (4 layers) of cheese cloth. The filtrate is rehomogenized using a dounce homogenizer, with a tight fitting pestle. The final homogenate is contrifuged at 1500×g for 15 min. The nuclear pellet is discarded and the supernatant fluid recentrifuged at 40,000×g for 30 min. The resulting pellet formed contains a dark inner part with the exterior, slightly pink. The pink outer part is suspended in a small amount of 50.0 mM Tris.HCl buffer, pH 7.4. The protein content is determined by the Lowry's method (Lowry et al, J. Biol. Chem., 1953). The membrane suspension is stored at -70° C., in 50.0 mM Tris.HCl, containing 0.2% inactivated BSA and 0.1 mM PMSF in aliquots of 1.0 ml containing 10.0 mg protein per ml of suspension until use in subsequent binding experiments.
For binding experiments, the following is added in μl volume to wells of a 96 well format of a microtiter plate: 100.0 μl of 100.0 mM Tris.HCl buffer containing 0.2% heat inactivated BSA, 10.0 mM MgCl2 and a mixture of protease inhibitors: leupeptin, 1.0 mg %; aprotinin, 1.0 mg %; 1,10-phenanthroline, 2.0 mg %; trypsin inhibitor, 10.0 mg % and 0.1 mM PMSF, 20.0 μl of [^3 H]Arginine^8, vasopressin (S.A. 75.0 Ci/mmole) at 0.8 nM and the reaction initiated by the addition of 80.0 μl of tissue membranes (200.0 μg tissue protein). The plates are left undisturbed on the bench top for 120 min. to reach equilibrium. Non-specific binding is assessed in the presence of 1.0 μM of unlabeled ligand, added in 20 μl volume. For test compounds, these are solubilized in 50% dimethylsulfoxide (DMSO) and added in 20.0 μl volume to a final incubation volume of 200 μl. Upon completion of binding, the content of each well is filtered off, using a Brandel® cell Harvester (Gaithersburg, Md.). The radioactivity trapped on the filter disk by the ligand-receptor complex is assessed by liquid scintillation counting in a Packard LS Counter, with an efficiency of 65% for tritium. The data are analyzed for IC50 values by the LUNDON-2 program for competition (LUNDON SOFTWARE, Ohio).

T1 sequence (P30560 whole entry): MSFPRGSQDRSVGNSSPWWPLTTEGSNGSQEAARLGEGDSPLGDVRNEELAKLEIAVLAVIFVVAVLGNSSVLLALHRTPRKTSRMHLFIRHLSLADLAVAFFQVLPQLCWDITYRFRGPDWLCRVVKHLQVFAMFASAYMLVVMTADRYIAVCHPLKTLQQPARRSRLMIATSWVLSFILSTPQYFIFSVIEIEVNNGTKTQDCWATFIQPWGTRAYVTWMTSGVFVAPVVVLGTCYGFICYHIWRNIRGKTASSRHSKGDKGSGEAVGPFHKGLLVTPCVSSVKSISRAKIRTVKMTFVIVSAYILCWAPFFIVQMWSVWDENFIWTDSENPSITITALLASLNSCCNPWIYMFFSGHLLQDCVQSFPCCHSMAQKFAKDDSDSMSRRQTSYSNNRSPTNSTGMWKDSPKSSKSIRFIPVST

IC50 (Rat Hepatic V1 Receptors)	IC50 (oxytocin receptors)	inhibition at 10 µM (oxytocin receptors)	IC50 [1]	Compound	Urine Vol. (ml/4 hrs.) (Vasopressin V2)	Osmolality (mOsm/kg) (Vasopressin V2; urine)
1.7 µM	1300 nM	91%	–	Cc1ccc(F)cc1C(=O)Nc1ccc(C(=O)N2CCc3cn[nH]c3-c3sccc32)cc1 [Example 2, N-[4-[(4,5-Dihydropyrazolo[3,4-d]thieno[3,2-b]azepin-6(1H)-yl)carbonyl]phenyl]-5-fluoro-2methylbenzamide]	17.8 ml/4 hrs.	429 mOsm/kg
4.7 µM	1700 nM	94%	0.23 µM	Cn1cc2c(n1)-c1sccc1N(C(=O)c1ccc(NC(=O)C3CCCCC3)cc1)CC2 [Example 6, N-[4-[[4,5-Dihydro-2-methylpyrazolo[3,4-d]thieno[3,2-b]-azepin-6(2H)-yl]carbonyl]phenyl]cyclohexane carboxamide]	–	–
